Data as given in patent US20150005264A1, “PREDICTIVE BIOMARKER FOR HYPOXIA-ACTIVATED PRODRUG THERAPY” (THRESHOLD PHARMACEUTICALS, INC., priority 2012, published 2015).

Tested on: melanoma
Test: Clinical trial of TH-302 monotherapy in melanoma patients, response compared with serum CA-IX level
Type: in vivo, human
Settings: thirty melanoma patients, pre-dose serum CA-IX (ELISA) cut-offs 28.8, 77.1, 178.3 pg/mL, FIG. 1
Procedure: In one important embodiment, the HAP is TH-302. In a clinical trial of TH-302 in melanoma patients, CA-IX levels were measured in serum samples taken from patients prior to TH-302 administration. Measured levels varied widely, with the first quartile having levels of 28.8 pg/mL CA-IX or less, the median being 77.1 pg/mL CA-IX, and the 3rd quartile having 178.3 pg/mL or less.
The data set used to generate the graphs in FIG. 1 was used to generate the graph in FIG. 2, which uses the 2×Median value of 154.2 pg/mL as the cut-off for dividing patients into high and low CA-IX level groups. Using this value as the cut-off, one sees an even more dramatic example of the predictive value of CA-IX levels in determining whether a patient will respond to TH-302 or other HAP therapy.

Cn1c(COP(=O)(NCCBr)NCCBr)cnc1[N+](=O)[O-] [TH-302, (2-bromoethyl)({[(2-bromoethyl)amino][(2-nitro-3-methylimidazol-4-yl)methoxy]phosphoryl})amine]
progression-free survival (response to TH-302) versus serum CA-IX level: higher CA-IX levels correlated to a better response to TH-302
